Laboratory results taken from patent publication US20150182550A1, “INHIBITORS OF THE INTERACTION OF THE SIGMA-1 RECEPTOR WITH hERG FOR USE IN THE TREATMENT OF CANCER” (CENTRE NATIONAL DE LA RECHERCHE SCIENTIFIQUE - CNRS, priority 2011, published 2015).

Tests used:
hERG channels = assay: Whole-cell patch-clamp of hERG tail currents in K562 cells; settings: 10 μM
Method: “Patch-clamp” electrophysiology experiments were carried out in the whole cell configuration. […] This protocol makes it possible to record transient inward currents, the amplitude of which correlates with the depolarization involved during the prepulses. […] (FIGS. 1A,B).
In order to verify a potential interaction between Sig1R and hERG, the effects of selective Sig1R ligands, i.e. igmesine and (+)pentazocine were analyzed with respect to the current. […] The effects of igmesine (10 μM) were then studied on I/V curves recorded at from −70 to 40 mV.
Patch-clamp experiments were then carried out in the K562 shRD and shSig1R cell lines in order to analyze the possible consequences of Sig1R silencing on the properties of hERG.

K562 cells = assay: Adhesion of K562 cells to fibronectin (FN); format: cell-based, human; settings: for FN-dependent specific cell adhesion: wild-type K562 cells, 10 μM
From the text: FIGS. 8A-8B represents the inhibition of the adhesion of K562 cells to FN by igmesine, E-4031 and Sig1R silencing. […] The values represent the mean±standard error of 6 to 9 independent experiments. NS: not significant (Student's t test). […] The values represent the mean±standard error of 12 independent experiments. ***p<0.001 (Student's t test). In one experiment, each value is the mean of three distinct wells.
The role of the Sig1R/hERG interaction on integrin-dependent cell adhesion to the extracellular matrix (ECM) has been tested in vitro. The expression of a single integrin subtype, i.e. integrin α5β1, has been reported in K562 cells. This integrin has a high affinity for fibronectin (FN), a component of the extracellular matrix (ECM). […] In the wild-type cells, the hERG channel blocker (E-4031) and igmesine inhibited FN-dependent specific cell adhesion. […] Likewise, the Sigma ligands no longer have any effect on the adhesion of the shSig1R cells (not represented).

Structure (SMILES) | effect of extracellular application on hERG currents (hERG channels; K562 cells) | hERG current reduced by (hERG channels; extracellular application, tail current at −120 mV, K562 cells) | FN-dependent specific cell adhesion (K562 cells) | additive effect on adhesion to FN compared with E-4031 alone (K562 cells; E4031+igmesine 10 μM each, K562 cells) | hERG current reduced by (hERG channels; human) | shift towards the left of the half-activation voltage value (hERG channels; human)
CC(C)=CCN1CCC2(C)c3cc(O)ccc3CC1C2C (single isomer, unassigned; (+)) [(+)pentazocine] | reversibly inhibited | 21.19±1.77% |  |  |  | 
Cc1cccc(CCN2CCC(C(=O)c3ccc(NS(C)(=O)=O)cc3)CC2)n1 [E-4031] |  |  | inhibited |  |  | 
CCC(C/C=C/c1ccccc1)(c1ccccc1)N(C)CC1CC1 (stereo not shown) [igmesine] |  |  | inhibited | did not produce an additive effect | 40.85±2.83% | ~10 mV
